# Assay results: ChEMBL document CHEMBL2440080, “Synthesis and biological evaluation of novel acylhydrazone derivatives as potential antitumor agents” (Bioorg Med Chem, 2013)
# Legend:
# HCC 2998 = experiment: Cytotoxicity against human HCC2998 cells after 48 hrs by sulforhodamine B assay; format: functional; settings: HCC 2998, 48 h
# UACC-257 = experiment: Cytotoxicity against human UACC257 cells after 48 hrs by sulforhodamine B assay; format: functional; settings: UACC-257, 48 h
# KM12 = experiment: Cytotoxicity against human KM12 cells after 48 hrs by sulforhodamine B assay; format: functional; settings: KM12, 48 h
# BT-549 = experiment: Cytotoxicity against human BT549 cells after 48 hrs by sulforhodamine B assay; format: functional; settings: BT-549, 48 h
# A549 = experiment: Cytotoxicity against human A549/ATCC cells after 48 hrs by sulforhodamine B assay; format: functional; settings: A549, 48 h
# SR = experiment: Cytotoxicity against human SR cells after 48 hrs by sulforhodamine B assay; format: functional
# UACC-62 = experiment: Cytotoxicity against human UACC62 cells after 48 hrs by sulforhodamine B assay; format: functional; settings: UACC-62, 48 h
# HOP-62 = experiment: Cytotoxicity against human HOP62 cells after 48 hrs by sulforhodamine B assay; format: functional; settings: HOP-62, 48 h
# SW-620 = experiment: Cytotoxicity against human SW620 cells after 48 hrs by sulforhodamine B assay; format: functional; settings: SW-620, 48 h
# MDA-MB-231 = experiment: Cytotoxicity against human MDA-MB-231 cells after 48 hrs by sulforhodamine B assay; format: functional; settings: MDA-MB-231, 48 h
# HCT-116 = experiment: Cytotoxicity against human HCT116 cells after 48 hrs by sulforhodamine B assay; format: functional; settings: HCT-116, 48 h
# CAKI-1 = experiment: Cytotoxicity against human CAKI-1 cells after 48 hrs by sulforhodamine B assay; format: functional; settings: CAKI-1, 48 h
# NCI/ADR-RES = experiment: Cytotoxicity against human NCI/ADR-RES cells after 48 hrs by sulforhodamine B assay; format: functional
# NCI-H226 = experiment: Cytotoxicity against human NCI-H226 cells after 48 hrs by sulforhodamine B assay; format: functional; settings: NCI-H226, 48 h
# Mus musculus = experiment: Toxicity in athymic nude mouse assessed as survival at 400 mg/kg, ip measured after 2 weeks; format: organism-based; set-up: dose 400 mg/kg, route intraperitoneal; settings: in vivo, 336 h
# HT-29 = experiment: Cytotoxicity against human HT-29 cells after 48 hrs by sulforhodamine B assay; format: functional; settings: HT-29, 48 h
# TK-10 = experiment: Cytotoxicity against human TK10 cells after 48 hrs by sulforhodamine B assay; format: functional; settings: TK-10, 48 h
# [1] = Cytotoxicity against human Hs 578T cells after 48 hrs by sulforhodamine B assay; format: functional
# SK-MEL-2 = experiment: Cytotoxicity against human SK-MEL-2 cells after 48 hrs by sulforhodamine B assay; format: functional; settings: SK-MEL-2, 48 h
# OVCAR-4 = experiment: Cytotoxicity against human OVCAR4 cells after 48 hrs by sulforhodamine B assay; format: functional; settings: OVCAR-4, 48 h
# Malme-3M = experiment: Cytotoxicity against human MALME-3M cells after 48 hrs by sulforhodamine B assay; format: functional
# SF-295 = experiment: Cytotoxicity against human SF295 cells after 48 hrs by sulforhodamine B assay; format: functional; settings: SF-295, 48 h
# COLO 205 = experiment: Cytotoxicity against human COLO205 cells after 48 hrs by sulforhodamine B assay; format: functional; settings: COLO 205, 48 h
# MCF7 = experiment: Cytotoxicity against human MCF7 cells after 48 hrs by sulforhodamine B assay; format: functional; settings: MCF7, 48 h
# IGROV-1 = experiment: Cytotoxicity against human IGROV1 cells after 48 hrs by sulforhodamine B assay; format: functional; settings: IGROV-1, 48 h
# HL-60(TB) = experiment: Cytotoxicity against human HL-60(TB) cells after 48 hrs by sulforhodamine B assay; format: functional; settings: HL-60, 48 h
# HCT-15 = experiment: Cytotoxicity against human HCT15 cells after 48 hrs by sulforhodamine B assay; format: functional; settings: HCT-15, 48 h
# OVCAR-8 = experiment: Cytotoxicity against human OVCAR8 cells after 48 hrs by sulforhodamine B assay; format: functional; settings: OVCAR-8, 48 h
# OVCAR-5 = experiment: Cytotoxicity against human OVCAR5 cells after 48 hrs by sulforhodamine B assay; format: functional; settings: OVCAR-5, 48 h
# T47D = experiment: Cytotoxicity against human T47D cells after 48 hrs by sulforhodamine B assay; format: functional
# CCRF-CEM = experiment: Cytotoxicity against human CCRF-CEM cells after 48 hrs by sulforhodamine B assay; format: functional
# SF-268 = experiment: Cytotoxicity against human SF268 cells after 48 hrs by sulforhodamine B assay; format: functional; settings: SF-268, 48 h
# SNB-75 = experiment: Cytotoxicity against human SNB75 cells after 48 hrs by sulforhodamine B assay; format: functional; settings: SNB-75, 48 h
# RXF 393 = experiment: Cytotoxicity against human RXF393 cells after 48 hrs by sulforhodamine B assay; format: functional; settings: RXF 393, 48 h
# U-251 = experiment: Cytotoxicity against human U251 cells after 48 hrs by sulforhodamine B assay; format: functional; settings: U-251, 48 h
# OVCAR-3 = experiment: Cytotoxicity against human OVCAR3 cells after 48 hrs by sulforhodamine B assay; format: functional; settings: OVCAR-3, 48 h
# K562 = experiment: Cytotoxicity against human K562 cells after 48 hrs by sulforhodamine B assay; format: functional; settings: K562, 48 h
# SNB-19 = experiment: Cytotoxicity against human SNB19 cells after 48 hrs by sulforhodamine B assay; format: functional; settings: SNB-19, 48 h
# M14 = experiment: Cytotoxicity against human M14 cells after 48 hrs by sulforhodamine B assay; format: functional; settings: M14, 48 h
# SK-OV-3 = experiment: Cytotoxicity against human SKOV3 cells after 48 hrs by sulforhodamine B assay; format: functional; settings: SK-OV-3, 48 h
# A498 = experiment: Cytotoxicity against human A498 cells after 48 hrs by sulforhodamine B assay; format: functional; settings: A498, 48 h
# MOLT-4 = experiment: Cytotoxicity against human MOLT4 cells after 48 hrs by sulforhodamine B assay; format: functional; settings: MOLT-4, 48 h
# LOX IMVI = experiment: Cytotoxicity against human LOXIMVI cells after 48 hrs by sulforhodamine B assay; format: functional
# NCI-H322M = experiment: Cytotoxicity against human NCI-H322M cells after 48 hrs by sulforhodamine B assay; format: functional
# PC-3 = experiment: Cytotoxicity against human PC3 cells after 48 hrs by sulforhodamine B assay; format: functional; settings: PC-3, 48 h
# 786-0 = experiment: Cytotoxicity against human 786-0 cells after 48 hrs by sulforhodamine B assay; format: functional; settings: 786-0, 48 h
# MDA-MB-435 = experiment: Cytotoxicity against human MDA-MB-435 cells after 48 hrs by sulforhodamine B assay; format: functional; settings: MDA-MB-435, 48 h
# NCI-H522 = experiment: Cytotoxicity against human NCI-H522 cells after 48 hrs by sulforhodamine B assay; format: functional; settings: NCI-H522, 48 h
# UO-31 = experiment: Cytotoxicity against human UO31 cells after 48 hrs by sulforhodamine B assay; format: functional; settings: UO-31, 48 h
# SK-MEL-5 = experiment: Cytotoxicity against human SK-MEL-5 cells after 48 hrs by sulforhodamine B assay; format: functional; settings: SK-MEL-5, 48 h
# SK-MEL-28 = experiment: Cytotoxicity against human SK-MEL-28 cells after 48 hrs by sulforhodamine B assay; format: functional; settings: SK-MEL-28, 48 h
# NCI-H23 = experiment: Cytotoxicity against human NCI-H23 cells after 48 hrs by sulforhodamine B assay; format: functional; settings: NCI-H23, 48 h
# HOP-92 = experiment: Cytotoxicity against human HOP92 cells after 48 hrs by sulforhodamine B assay; format: functional; settings: HOP-92, 48 h
# RPMI-8226 = experiment: Cytotoxicity against human RPMI8226 cells after 48 hrs by sulforhodamine B assay; format: functional; settings: RPMI-8226, 48 h
# SN12C = experiment: Cytotoxicity against human SN12C cells after 48 hrs by sulforhodamine B assay; format: functional
# ACHN = experiment: Cytotoxicity against human ACHN cells after 48 hrs by sulforhodamine B assay; format: functional
# MDA-MB-468 = experiment: Cytotoxicity against human MDA-MB-468 cells after 48 hrs by sulforhodamine B assay; format: functional; settings: MDA-MB-468, 48 h
# [2] = Cytotoxicity against human EKVX cells after 48 hrs by sulforhodamine B assay; format: functional
# NCI-H460 = experiment: Cytotoxicity against human NCI-H460 cells after 48 hrs by sulforhodamine B assay; format: functional; settings: NCI-H460, 48 h
# SF-539 = experiment: Cytotoxicity against human SF539 cells after 48 hrs by sulforhodamine B assay; format: functional; settings: SF-539, 48 h
# DU-145 = experiment: Cytotoxicity against human DU145 cells after 48 hrs by sulforhodamine B assay; format: functional; settings: DU-145, 48 h
structure (smiles),measurement,setting,value
CCN(CC)c1ccc(/C=N/NC(=O)c2ccccc2Nc2ccnc(C(F)(F)F)c2)c(O)c1,GI50,HCC 2998,191 nM
same,GI50,UACC-257,324 nM
same,GI50,KM12,251 nM
same,GI50,BT-549,347 nM
same,GI50,A549,309 nM
same,GI50,SR,138 nM
same,GI50,UACC-62,214 nM
same,GI50,HOP-62,105 nM
same,GI50,SW-620,363 nM
same,GI50,MDA-MB-231,195 nM
same,GI50,HCT-116,100 nM
same,GI50,CAKI-1,63.1 nM
same,GI50,NCI/ADR-RES,263 nM
same,GI50,NCI-H226,151 nM
same,Activity,Mus musculus,Non-toxic
same,GI50,HT-29,347 nM
same,GI50,TK-10,166 nM
same,GI50,[1],871 nM
same,GI50,SK-MEL-2,501 nM
same,GI50,OVCAR-4,87.1 nM
same,GI50,Malme-3M,339 nM
same,GI50,SF-295,251 nM
same,GI50,COLO 205,174 nM
same,GI50,MCF7,288 nM
same,GI50,IGROV-1,79.4 nM
same,GI50,HL-60(TB),251 nM
same,GI50,HCT-15,50.1 nM
same,GI50,OVCAR-8,209 nM
same,GI50,OVCAR-5,200 nM
same,GI50,T47D,550 nM
same,GI50,CCRF-CEM,31.6 nM
same,GI50,SF-268,69.2 nM
same,GI50,SNB-75,209 nM
same,GI50,RXF 393,251 nM
same,GI50,U-251,126 nM
same,GI50,OVCAR-3,126 nM
same,GI50,K562,380 nM
same,GI50,SNB-19,479 nM
same,GI50,M14,129 nM
same,GI50,SK-OV-3,174 nM
same,GI50,A498,178 nM
same,GI50,MOLT-4,79.4 nM
same,GI50,LOX IMVI,79.4 nM
same,GI50,NCI-H322M,100 nM
same,GI50,PC-3,263 nM
same,GI50,786-0,182 nM
same,GI50,MDA-MB-435,457 nM
same,GI50,NCI-H522,263 nM
same,GI50,UO-31,141 nM
same,GI50,SK-MEL-5,158 nM
same,GI50,SK-MEL-28,240 nM
same,GI50,NCI-H23,513 nM
same,GI50,HOP-92,251 nM
same,GI50,RPMI-8226,41.7 nM
same,GI50,SN12C,240 nM
same,GI50,ACHN,79.4 nM
same,GI50,MDA-MB-468,151 nM
same,GI50,[2],158 nM
same,GI50,NCI-H460,67.6 nM
same,GI50,SF-539,245 nM
same,GI50,DU-145,126 nM
